Test results from PubChem BioAssay (NCI).
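Grown in 96-well plates, cells were treated for 48 hours with each compound at five concentrations. Insufficient inhibition: endpoint recorded as highest concentration tested. At the TGI there is no net growth.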

Columns and labels:
Test in all cases: NCI-60 cell line screen, 48 h
CCRF-CEM leukemia = test system: CCRF-CEM leukemia
DU-145 prostate = test system: DU-145 prostate
IGROV1 ovarian = test system: IGROV1 ovarian
MCF7 breast = test system: MCF7 breast
MDA-N = test system: MDA-N
SF-268 CNS = test system: SF-268 CNS
SF-539 CNS = test system: SF-539 CNS
SW-620 colon = test system: SW-620 colon
UACC-257 melanoma = test system: UACC-257 melanoma
UO-31 renal = test system: UO-31 renal

| SMILES | TGI (CCRF-CEM leukemia) [µM] | TGI (DU-145 prostate) [µM] | TGI (IGROV1 ovarian) [µM] | TGI (MCF7 breast) [µM] | TGI (MDA-N) [µM] | TGI (SF-268 CNS) [µM] | TGI (SF-539 CNS) [µM] | TGI (SW-620 colon) [µM] | TGI (UACC-257 melanoma) [µM] | TGI (UO-31 renal) [µM] |
| --- | --- | --- | --- | --- | --- | --- | --- | --- | --- | --- |
| C=CCN(c1cc(OC)c2[nH]c(C(=O)O)c(C)c2c1[N+](=O)[O-])S(C)(=O)=O | > 100 | > 100 | > 100 | > 100 | > 100 | > 100 | > 100 | > 100 | > 100 | > 100 |
| O=C(O)CCSc1ncnc2nc[nH]c12 | > 100 | > 100 | > 100 | > 100 | > 100 | > 100 | > 100 | > 100 | > 100 | > 100 |
| Fc1ccc(OCc2ccc3nc(-c4ccccc4)c(Cl)nc3c2)cc1 | 89.8 | > 100 | 74.3 | > 100 | > 100 | > 100 | 51.8 | > 100 | > 100 | > 100 |
| O=C(O)C12C3C4(C(=O)O)C1C1(C(=O)O)C2C3(C(=O)O)C41 (stereo not given) | > 100 | > 100 | > 100 | > 100 | > 100 | > 100 | > 100 | > 100 | > 100 | > 100 |
| O=C1C=CC(=O)c2c(O)c(N3CCN(c4ncccn4)CC3)c(Cl)c(O)c21 | 4.24 | 12.9 | 3.43 | 3.32 | 3.75 | 7.88 | 3.63 | 2.97 | 3.45 | 4.03 |
| COC(=O)[C@@H]1[C@H]2CC[C@]3(C)[C@@H](OC(C)=O)CC[C@H]3[C@@H]2CC[C@H]1C1(C)SCCS1 | 86.4 | > 100 | > 100 | 83 | 47.3 | > 100 | > 100 | > 100 | 53.3 | > 100 |
| Fc1cccc(F)c1C1SCc2nc3cc(Cl)ccc3n21 (stereo not given) | > 100 | > 100 | > 72.4 | 34 | > 100 | > 100 | > 100 | > 100 | > 60.6 | > 47.2 |
| COc1ccc2c(c1)CCC(CN1CCN(CCOC(c3ccccc3)c3ccccc3)CC1)C2O (stereo not given) | 53.4 | 38.9 | 30.1 | 37.5 | 28.1 | 31.5 | 26.4 | 60.1 | 27.2 | 30 |
| O=C1CCCC2=C1CC1=C(CCCC1=O)N2c1ccc(-c2ccccc2)cc1 | > 100 | > 100 | > 100 | > 100 | > 100 | > 100 | > 100 | > 100 | > 100 | > 100 |
| CCOP(=O)(COCCn1nc(Br)c(=O)[nH]c1=O)OCC | > 100 | > 100 | > 100 | > 100 | > 100 | > 100 | > 100 | > 100 | > 100 | > 100 |
| Clc1sc(Cl)c2c1[C@H](Br)C[C@@H]2Cl | 52.9 | > 100 | 44.6 | 50.8 | > 100 | 49.9 | 37.1 | 45.6 | 78.2 | 43.8 |
| Cc1ccc(S(=O)(=O)N2CCc3cc(O)c([N+](=O)[O-])cc32)cc1 | > 100 | > 100 | > 100 | > 100 | > 100 | > 100 | > 100 | > 100 | > 100 | > 100 |
| Cc1nc2ccccc2n1Cc1ccc(NC(=S)Nc2ccccc2)cc1 | > 100 | > 100 | > 100 | > 100 | > 100 | > 100 | > 100 | > 100 | > 100 | > 100 |
| CC(C)(C)C#CI1OC(=O)c2ccccc21 | 6.09 | 17.8 | 12 | 15.4 | 23.4 | 14.3 | 7.13 | 10.3 | 25.7 | 14.6 |
| CCOC(=O)OC1(c2ccccc2)CCN(C)CC1 | > 100 | > 100 | > 100 | > 100 | > 100 | > 100 | > 100 | > 100 | > 100 | > 100 |
